The text below walks through data of US20250368651A1 (priority 2022, published 2025).

The target of data set [1] is COVID RNA (SARS-CoV-2 RNA SL5 per FIG. 8). As to the kind of experiment: FP binding, Kd for COVID RNA.
Data set [2] relates to SARS-CoV-2 SL5 RNA. The experiment in a line: Deconvolution of the RNA-binding site within SL5. As to conditions: FIG. 7D.
Data set [3] deals with 5′-biotinylated RNA Seq4. The experiment in a line: Surface plasmon resonance (SPR) assay, RNA Seq4. Type of data set: binding. As to conditions: footnote b: SPR assay for RNA Seq4. The protocol:
SPR experiments were performed on a Biacore T200 (GE Healthcare) instrument at 25° C. using streptavidin pre-coated SA sensor chips (GE Healthcare). The running buffer composed of 10 mM HEPES, 100 mM NaCl, 0.05% Tween 20 (w/v), 5 mM EDTA, 0.1% (v/v) DMSO at pH 6.8 was prepared freshly, filtered through the […] PVDF membrane prior to use. 5′-biotinylated RNA Seq4 was purchased from GenScript and dissolved in nuclease-free water to a concentration of 100 μM. For immobilization of the biotinylated RNA, the sensor chip was firstly conditioned with 3 consecutive 1 min injections of high salt solution (50 mM NaOH, 1M NaCl) at a flow rate of […]. Next, the biotinylated RNA was diluted 1000× in running buffer (100 nM) and applied over the streptavidin sensor chip surface at a flow rate of 10 μL/min to achieve immobilization level of about 800 RU. Finally, alkyne-PEG-biotin (50 μM in running buffer) was injected (1 min, […]) to block remaining streptavidin surface binding sites. The kinetics analysis was performed following the BiaControl Software Wizard Kinetics protocol. […] All monitored resonance signals were subtracted with signals from a non-binding reference channel. Kinetic values (Kd, ka, kd) were calculated using the BiaEvaluation Software Binding Affinity protocol with 1:1 fitting. […]
(In SPR one partner is held on a chip, and binding of the other changes the refractive index at the surface.)

Data set [4] concerns the target DNA Seq6. As to the kind of experiment: Competitive FP binding assay (displacement of SMN-C2 from DNA Seq6). As to conditions: footnote c: FP assay for DNA Seq6; competition with SMN-C2 (0.5 μM) and DNA Seq6 (25 μM); read-out: Kd (apparent, competitive FP). The protocol: (§1) A 1:2 dilution series (8 points) of each oligonucleotide was prepared in 20-30 μL water to desired concentrations (i.e., 1-128 μM). 20-30 μL 2× working solution containing the 2× assay buffer and the small-molecule ligand was added to each oligonucleotide sample in 1:1 (v/v) and mixed by pipetting for 4 times. For fluorescence polarization measurement, 20 μL of the above 1× working solution was transferred into a 384-well, black, F-bottom microplates (Greiner Bio-One) in duplicates or triplicates. The plate was equilibrated at room temperature for 5 min before being read using a microplate reader (SYNERGY H1, BioTek; Excitation/Emission=360/460 nm) at 25° C. For compound SMN-C5, a competitive binding assay was employed to measure an apparent Kd. SMN-C5 was 1:2 serial diluted for 10 concentration points starting at 750 μM in DMSO. A mixture of SMN-C2 (0.5 μM) and DNA Seq6 (25 μM) in 1× assay buffer was prepared and incubated at room temperature for 10 minutes. 3 μL of SMN-C5 solution at each concentration was added to a 42 μL SMN-C2/DNA Seq6 mixture and incubated at room temperature for 10 minutes. The mixture was then transferred into a microplate (20 μL each well) in duplicates for fluorescence polarization readout. The experimental data were analyzed using Prism 8 software (Graphpad Software, San Diego, CA, USA).

The test system of data set [5] is SMN2 exon 7 splicing. The experiment in a line: Cell-based SMN2 splicing assay in 293T cells (minigene). Further details: species or system human. The conditions noted are these: for EC50: Homo sapiens, HEK-293T.
The target in data set [6] is dsRNA Seq18 (5′ splice site of SMN2 exon 7 and U1 snRNA duplex). As to conditions: NMR chemical shift assay; cited from earlier work.
Data set [7] addresses DNA Seq6 (UGAAGGAAGGU as deoxyribonucleotides). As to the kind of experiment: FP binding assay, DNA Seq6. The conditions noted are these: footnote c: FP assay for DNA Seq6; range = 95% CI; read-out: Kd. As to the method: (§2) All synthetic DNA and RNA oligomers were purchased from Integrated DNA Technologies and reconstituted in nuclease-free water (Invitrogen #AM9932) at 1 mM. The concentration of the oligonucleotides at ˜0.1 mM was calibrated with the A260 value measured by a NanoDrop ND-1000 (Thermo, Waltham, MA, USA) and the predicted extinction coefficient (http://www.oligoevaluator.com) using Lamber-Beer's Law. The risdiplam analogues (1 mM in DMSO) were diluted in 2× assay buffer (40 mM HEPES, 200 mM NaCl for RNA; 40 mM HEPES, 200 mM NaCl, 1 mM MgCl2 for DNA) to make a 1 μM 2× working solution.
as §1

For data set [8], the target named is RNA Seq4 […]. The experiment in a line: FP binding assay, RNA Seq4. As to the method: as §2, §1
The test system of data set [9] is seq 1 (GAUGGAGAG), contains the AUG start codon. As to the kind of experiment: FP binding assay, SARS-CoV-2 seq 1 (start codon).
The test system of data set [10] is seq 1-RC. The experiment in a line: FP binding assay, reverse complement of seq 1.
Data set [11] in a line: in vitro. As to conditions: human.
The test system of data set [12] is gene splicing. As to conditions: cited from earlier work.
A short description of data set [13]: in vitro. As to conditions: human. The source holds these as a separate data set.
Data set [14] can be described thus: in vitro. The conditions noted are these: human. The source holds these as a separate data set.
Data set [15] has as its target von Hippel-Lindau (VHL) E3 ligase (Homo sapiens, UniProt P40337). The conditions noted are these: cited from earlier work.
The test system of data set [16] is SMN2 gene vs forkhead box M1 (FoxM1) gene. As to conditions: cited from earlier work.
For data set [17], the system named is SARS-CoV-2 minigene mRNA (5′ and 3′ UTRs, Gaussia luciferase). The experiment in a line: SARS-CoV-2 minigene HEK293 cell model, RT-qPCR of viral minigene mRNA. Format: cell-based. As to conditions: 24 hours. (In qPCR the cycle at which signal appears reflects the starting amount.)
For data set [18], the system named is SARS-CoV-2 5′ UTR. As to the kind of experiment: SARS-CoV-2 5′ UTR expressing 293T cells (Gaussia luciferase cassette), RNA reduction. Format: cell-based.
In data set [19] the test system is RNA Seq6 UGAAGGAAGGU
The experiment in a line: Fluorescence polarization (FP) binding assay, RNA Seq6. As to the method:
as §2, §1
(In general: In fluorescence polarisation assays a small probe gives low polarisation when free and higher when bound to something large.)

Where [20] appears, read: cell-based SMN2 splicing assay in 293T cells, read-out: SMN2 EC50.

Read-outs that look alike come from different tables or passages of the source.

Sequence of von Hippel-Lindau (VHL) E3 ligase (P40337 54-213 limits assumed, species assumed): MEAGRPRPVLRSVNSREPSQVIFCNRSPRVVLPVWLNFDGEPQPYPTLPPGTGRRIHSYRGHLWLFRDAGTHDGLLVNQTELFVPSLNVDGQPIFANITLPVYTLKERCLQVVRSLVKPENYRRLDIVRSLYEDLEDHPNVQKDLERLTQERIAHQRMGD
Sequence of von Hippel-Lindau (VHL) E3 ligase (Q15369 17-112 partner limits assumed, species assumed): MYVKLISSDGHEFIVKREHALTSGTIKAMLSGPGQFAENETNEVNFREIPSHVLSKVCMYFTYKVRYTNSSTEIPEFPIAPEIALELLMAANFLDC
Sequence of von Hippel-Lindau (VHL) E3 ligase (Q15370 whole entry partner, species assumed): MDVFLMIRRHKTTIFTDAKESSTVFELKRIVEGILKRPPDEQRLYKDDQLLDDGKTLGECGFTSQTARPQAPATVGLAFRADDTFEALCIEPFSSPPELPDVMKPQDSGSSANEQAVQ

On to `O=c1oc2cc(N3CCNCC3)ccc2cc1-c1cn2ccc(F)cc2n1` [Compound C30, 3-(7-fluoroimidazo[1,2-a]pyridin-2-yl)-7-(piperazin-1-yl)-2H-chromen-2-one], for which the Kd came to 0.21 ± 0.04 µM in data set [1] (Table 3) and 0.21 ± 0.4 µM in data set [1] (Table 4). Further, in data set [2], the “binding site within SL5” value is recorded as “selectively binds to the RNA structure containing the bulged G in SL5”.

One may read the EC50 as the midpoint of the concentration-response curve. Turning to `Cc1cn2cc(-c3cc(=O)n4cc(N5CCN(C)CC5)ccc4n3)cc(F)c2n1` [SMN-C5, 2-(8-fluoro-2-methylimidazo[1,2-a]pyridin-6-yl)-7-(4-methylpiperazin-1-yl)-4H-pyrido[1,2-a]pyrimidin-4-one], the figures for the Kd in data set [3], in [4] and in data set [6] were 8 µM, 5.8 ± 2.5 µM and 28 ± 9 µM, respectively. Moreover, the EC50 in data set [5] (setting [20]) stood at 0.059 ± 0.009 µM.

For the compound `Cc1cn2cc(-c3cc4ccc(N5CCN[C@@H](C)C5)cc4oc3=O)nc2c(C)n1` [Compound C4, (S)-3-(6,8-dimethylimidazo[1,2-a]pyrazin-2-yl)-7-(3-methylpiperazin-1-yl)-2H-chromen-2-one, reference compound], the Kd was 2.9 ± 0.3 µM in data set [7], 25.4 ± 7.3 µM in data set [8], 1.3 ± 0.3 µM in [1] (Table 3) and 1.3 ± 0.3 µM in [1] (Table 4). In addition, the EC50 in data set [5] (Table 3, read-out: SMN2 Splicing EC50) was found to be 0.0139 ± 0.0026 µM; in data set [5] (setting [20]), 0.014 ± 0.003 µM. Further, the “binding to seq 1” value in data set [9] is given as “preferentially binds to seq 1”. For the same compound, in data set [10], the “binding to seq 1-RC” value is on record as “does not bind”. For the same compound, the CC50 in [11] is greater than 13 µM.

For the compound `CCN1CCN(c2cc(C)c3nc(-c4cc5c(C)nc(C)cn5n4)cc(=O)n3c2)CC1` [Compound C3, 2-(4,6-dimethylpyrazolo[1,5-a]pyrazin-2-yl)-7-(4-ethylpiperazin-1-yl)-9-methyl-4H-pyrido[1,2-a]pyrimidin-4-one, reference compound], in data set [12], the “number of genes whose splicing is significantly affected” value is 13 genes. Further, the CC50 in data set [13], in [14] and in data set [11] was greater than 30 µM throughout.

With `Cc1cc([C@H](C(=O)N2C[C@H](O)C[C@H]2C(=O)N[C@@H](CC(=O)N2CCC(C#Cc3ccc(C(=O)N[C@H]4C(C)(C)[C@H](Oc5ccc(C#N)c(Cl)c5)C4(C)C)cc3)CC2)c2ccccc2)C(C)C)on1` [ARD-266], the Kd result in [15] is recorded as “micromolar”.

Turning to `CCc1nc(C)cn2nc(-c3cc(=O)n4cc(C5CCN(C)CC5)cc(C)c4n3)cc12` [RG-7800], the “sensitivity of SMN2 gene compared to FoxM1” value in data set [16] was roughly 10 times.

In the case of `CC1(C)CC(Oc2ccc(-c3ccc(-c4cn[nH]c4)cc3O)nn2)CC(C)(C)N1` [branaplam], in data set [12], the “number of genes whose splicing is significantly affected” value is recorded as 36 genes.

As for `CCOC(=O)C1=C(Nc2ccccc2)S/C(=C\c2ccc(OCCOCCn3cc(COCCOCCOCCOCCN4CCN(c5ccc6cc(-c7cn8ccc(F)cc8n7)c(=O)oc6c5)CC4)nn3)c(O)c2)C1=O` [Compound C47], the “reduction of viral minigene mRNA level” value in data set [17] (25 μM, normalized with GAPDH) is recorded as roughly 50%. In addition, the “effect on RNA level (RT-qPCR)” value in data set [17] (different concentrations) is listed as “reduce the RNA level in a dose-dependent manner”. Further, the “maximum potency / activity (RNA reduction level)” value in [18] was “between those of C64 and C65”.

Regarding `Cc1cn2cc(-c3cc4ccc(N5CCN(CCNC(=O)OC(C)(C)C)[C@@H](C)C5)cc4oc3=O)nc2c(C)n1` [Compound C6, (S)-tert-butyl(2-(4-(3-(6,8-dimethylimidazo[1,2-a]pyrazin-2-yl)-2-oxo-2H-chromen-7-yl)-2-methylpiperazin-1-yl)ethyl)carbamate], in data set [19] (Table 1 RNA Seq6 (SMN-C2) vs Table 2 entry 6), the “reduction of binding to RNA Seq6 by the Boc group” value is reported as roughly 3 fold. Further, the Kd was 51.2 ± 4.9 µM in [19] (footnote d: FP assay for RNA Seq6, read-out: Kd); 4 ± 0.3 µM in data set [7]; 37.5 ± 14 µM in data set [8]; 3 ± 0.4 µM in data set [1] (Table 3); 3.03 ± 0.4 µM in [1] (Table 4). In addition, in data set [5] (setting [20]), the concentration giving a half-maximal response (EC50) is greater than 8 µM. Also, the “splicing modulation in cells” value in data set [5] (cellular SMN2 splicing assays) is “without showing any observable splicing modulation”.
